The supplement of paper PMC10307832

Tests used:
Experiment in all cases: relative viability (nuclei count vs DMSO), 5 days (fraction); higher = more cells survive
[1] = test system: NCI-H1666
Outline: (§1)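 Relative viability divides the nuclei count in treated wells by that in vehicle wells. Lung cancer cell lines were seeded in 1536-well plates, dosed by pin tool the next day, and fixed and stained after 5 days in one step with final 0.05% Triton X-100, 1% formaldehyde and 1 ug/ml Hoechst. Dosing was a single drug or a fixed anchor-drug dose plus five library-drug doses (not always all listed) in √10 steps, and values are medians of duplicate plates imaged at 4×.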

[2] = test system: NCI-H1993
Outline: as §1

[3] = test system: NCI-H2085
Outline: as §1

[4] = test system: NCI-H2228
Outline: as §1

[5] = test system: NCI-H2347
Outline: as §1

[6] = test system: NCI-H23
Outline: as §1

[7] = test system: NCI-H322M
Outline: as §1

[8] = test system: NCI-H520
Outline: as §1

[9] = test system: NCI-H647
Outline: as §1

[10] = test system: NCI-H661
Outline: as §1

[11] = test system: NCI-H838
Outline: as §1

Question: What does the source list for O=C(O)CCCCC(CCSCc1ccccc1)SCc1ccccc1 (stereo not given) [CPI-613] + C[C@]1(O)C[C@@H](c2nc(-c3ccc4ccc(-c5ccccc5)nc4c3)c3c(N)nccn32)C1 [Linsitinib] (partner 1 µM)?
Answer: relative viability ([1]; first compound 5 µM): 0.783; relative viability ([1]; first compound 15.81 µM): 0.907; relative viability ([1]; first compound 50 µM): 0.789; relative viability ([1]; first compound 158.11 µM): 0.172; relative viability ([1]; first compound 500 µM): 0.167; relative viability ([2]; first compound 5 µM): 0.71; relative viability ([2]; first compound 15.81 µM): 0.671; relative viability ([2]; first compound 50 µM): 0.781; relative viability ([2]; first compound 158.11 µM): 0.61; relative viability ([2]; first compound 500 µM): 0.432; relative viability ([3]; first compound 5 µM): 0.854; relative viability ([3]; first compound 15.81 µM): 0.759; relative viability ([3]; first compound 50 µM): 0.95; relative viability ([3]; first compound 158.11 µM): 0.548; relative viability ([3]; first compound 500 µM): 0.2; relative viability ([4]; first compound 5 µM): 0.735; relative viability ([4]; first compound 15.81 µM): 0.453; relative viability ([4]; first compound 50 µM): 0.402; relative viability ([4]; first compound 158.11 µM): 0.221; relative viability ([4]; first compound 500 µM): 0.0094; relative viability ([5]; first compound 5 µM): 0.983; relative viability ([5]; first compound 15.81 µM): 0.857; relative viability ([5]; first compound 50 µM): 0.86; relative viability ([5]; first compound 158.11 µM): 0.874; relative viability ([5]; first compound 500 µM): 0.868; relative viability ([6]; first compound 5 µM): 0.596; relative viability ([6]; first compound 15.81 µM): 0.567; relative viability ([6]; first compound 50 µM): 0.395; relative viability ([6]; first compound 158.11 µM): 0.383; relative viability ([6]; first compound 500 µM): 0.0224; relative viability ([7]; first compound 5 µM): 0.832; relative viability ([7]; first compound 15.81 µM): 0.721; relative viability ([7]; first compound 50 µM): 0.931; relative viability ([7]; first compound 158.11 µM): 0.693; relative viability ([7]; first compound 500 µM): 0.634; relative viability ([8]; first compound 5 µM): 0.842; relative viability ([8]; first compound 15.81 µM): 1.09; relative viability ([8]; first compound 50 µM): 1.03; relative viability ([8]; first compound 158.11 µM): 0.412; relative viability ([8]; first compound 500 µM): 0.12; relative viability ([9]; first compound 5 µM): 1.16; relative viability ([9]; first compound 15.81 µM): 1.13; relative viability ([9]; first compound 50 µM): 0.951; relative viability ([9]; first compound 158.11 µM): 0.107; relative viability ([9]; first compound 500 µM): 0.0169; relative viability ([10]; first compound 5 µM): 0.49; relative viability ([10]; first compound 15.81 µM): 0.458; relative viability ([10]; first compound 50 µM): 0.668; relative viability ([10]; first compound 158.11 µM): 0.503; relative viability ([10]; first compound 500 µM): 0.511; relative viability ([11]; first compound 5 µM): 1.04; relative viability ([11]; first compound 15.81 µM): 0.956; relative viability ([11]; first compound 50 µM): 0.905; relative viability ([11]; first compound 158.11 µM): 0.544; relative viability ([11]; first compound 500 µM): 0.0935
